Blank lines part the entries; values can stand above or below the molecule they belong to.
System: 885512-296-R-J2-PDC complex spheroid viability
Experiment: Anticancer human tumor 885512-296-R-J2-PDC patient-derived breast carcinoma cell line growth inhibition [GQUAD]
Conditions: for IC50: curve of first compound; for viability, T/C: stronger effect = lower value
Description: DNA G-quadruplex Stabilizer Agents in Combinations in Complex Spheroids
A high-throughput screen of multi-cell type tumor spheroids was designed to identify active combinations of DNA G-quadruplex stabilizer agents and targeted small molecules. Complex spheroids include a stromal component modeled by human endothelial cells (HUVEC) and fibroblasts modeled by human mesenchymal stem cells (MSCs). The concentration ranges selected for each drug and investigational agent were based upon clinically achievable concentrations if the clinical Cmax of the agent was known.
Compounds. The drugs and investigational agents: pidnarulex (CX-5461; NSC782164), APTO-253 (NSC789042), BRACO-19 (NSC847499), peposertib (NSC802822), ceralasertib (NSC780249), elimusertib (NSC800525), camonsertib (NSC841442), AZD-1390 (NSC803789), olaparib (NSC753686), talazoparib (NSC767125), ART-558 (NSC835418), sotorasib (NSC818433), MRTX-1133 (NSC836407), SN-38 (NSC673596), topotecan (NSC609699), etoposide (NSC141540), doxorubicin (NSC123127), gemcitabine (NSC613327), 5-fluorouracil (NSC19893), paclitaxel (NSC125973), vemurafenib (NSC761431), panobinostat (NSC761190), R-306465 (JNJ-16241199; NSC773264), adavosertib (NSC754352), TP-3654 (NSC805149), carboplatin (NSC241240), KSQ-4279 (NSC840948), and staurosporine (NSC755774) were obtained from the National Cancer Institute (NCI) Developmental Therapeutics Program Chemical Repository (34). The FDA-approved anticancer drug set is available from the NCI Developmental Therapeutics Program. […] The stock solutions were prepared in dimethyl sulfoxide (DMSO, Sigma-Aldrich, St. Louis, MO, cat. D2650) at 800-fold the tested concentration and stored at -70 degrees C prior to their use. All drugs and investigational agents were tested over a range starting from a high concentration at or near the clinical Cmax and decreasing in half-log increments. If the clinical Cmax for an agent had not been determined, the highest concentration tested was 10 microM.
2.3 Cell Culture. All cells were maintained in an incubator at 37 degrees C and 5% CO2 with 95% humidity. The PDC lines were cultured according to standard operating procedures established by the NCI PDMR. All PDCs were thawed and cultured in Matrigel-coated flasks prepared with a working solution of 1X Ham's F-12 nutrient mix, without supplementation (Invitrogen, cat. 11765054), 100 U/mL penicillin-streptomycin (Invitrogen, cat. 15140122), and 2.5% Matrigel (Corning Inc., cat. 354248) for the first three passages. The 857933-349-R-J2-PDC line was cultured in 6C/Colon 1B media, which includes advanced DMEM/F-12 (Thermo Fisher Scientific, cat. 12634028), 10 mM HEPES (Thermo Fisher Scientific, cat. 15630080), 1X GlutaMAX supplement (Thermo Fisher Scientific, cat. 35050061), 0.1 mg/mL primocin (InvivoGen, cat. ant-pm-2), 10% defined fetal bovine serum, heat inactivated (HyClone Laboratories Inc., cat. SH30070.03HI), 50% L-WRN conditioned media (ATCC, cat. CRL-3276), 1.25 mM N-Acetyl-L-cysteine (Sigma-Aldrich, cat. A9165), 10 mM nicotinamide (Sigma-Aldrich, cat. N0636), 1X B-27 supplement (Thermo Fisher Scientific, cat. 17504044), 1X N-2 supplement (Thermo Fisher Scientific, cat. 17502048), 10 microM Y-27632 dihydrochloride (Tocris Bioscience, cat. 1254), and 50 ng/mL human EGF recombinant protein (Thermo Fisher Scientific, cat. PHG0311). The 485176-168-R4-J1-PDC line was cultured in Panc media, which includes all 6C/Colon 1B media components plus 100 ng/mL human FGF-10 (Thermo Fisher Scientific, cat. 100-26), 500 nM SB-431542 (Selleckchem, cat. S1067), and gastrin (Tocris, cat. 3006).
[…]

[1] = second compound 0.0316 µM, first compound 0.0316 µM
[2] = second compound 0.0316 µM, first compound 0.1 µM
[3] = second compound 0.0316 µM, first compound 0.316 µM
[4] = second compound 0.0316 µM, first compound 1 µM
[5] = second compound 0.0316 µM, first compound 3.16 µM
[6] = second compound 0.0316 µM, first compound 10 µM
[7] = second compound 0.1 µM, first compound 0.0316 µM
[8] = second compound 0.1 µM, first compound 0.1 µM
[9] = second compound 0.1 µM, first compound 0.316 µM
[10] = second compound 0.1 µM, first compound 1 µM
[11] = second compound 0.1 µM, first compound 3.16 µM
[12] = second compound 0.1 µM, first compound 10 µM
[13] = second compound 0.316 µM, first compound 0.0316 µM
[14] = second compound 0.316 µM, first compound 0.1 µM
[15] = second compound 0.316 µM, first compound 0.316 µM
[16] = second compound 0.316 µM, first compound 1 µM
[17] = second compound 0.316 µM, first compound 3.16 µM
[18] = second compound 0.316 µM, first compound 10 µM
[19] = second compound 1 µM, first compound 0.0316 µM
[20] = second compound 1 µM, first compound 0.1 µM
[21] = second compound 1 µM, first compound 0.316 µM
[22] = second compound 1 µM, first compound 1 µM
[23] = second compound 1 µM, first compound 3.16 µM
[24] = second compound 1 µM, first compound 10 µM
[25] = second compound 3.16 µM, first compound 0.0316 µM
[26] = second compound 3.16 µM, first compound 0.1 µM
[27] = second compound 3.16 µM, first compound 0.316 µM
[28] = second compound 3.16 µM, first compound 1 µM
[29] = second compound 3.16 µM, first compound 3.16 µM
[30] = second compound 3.16 µM, first compound 10 µM
[31] = second compound 10 µM, first compound 0.0316 µM
[32] = second compound 10 µM, first compound 0.1 µM
[33] = second compound 10 µM, first compound 0.316 µM
[34] = second compound 10 µM, first compound 1 µM
[35] = second compound 10 µM, first compound 3.16 µM
[36] = second compound 10 µM, first compound 10 µM
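Further: spheroids exposed to the compounds for one week.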
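Wherever viability, T/C is given: percent of tumor spheroid viability relative to DMSO vehicle control wells.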

IC50 (second compound 0.0316 µM): > 10000 nM
IC50 (second compound 0.1 µM): > 10000 nM
IC50 (second compound 0.316 µM): < 31.6 nM
IC50 (second compound 1 µM): < 31.6 nM
IC50 (second compound 3.16 µM): < 31.6 nM
IC50 (second compound 10 µM): < 31.6 nM
Structure (SMILES): Cc1cccc(N(C)C(=O)C2C(O)CCN2c2nc(C)cc(C(F)(F)F)c2C#N)c1 (centres undefined) + Cc1cnc(CNC(=O)c2c(=O)c3ccc(N4CCCN(C)CC4)nc3n3c2sc2ccccc23)cn1
viability, T/C [1]: 93.2%
viability, T/C [2]: 86.2%
viability, T/C [3]: 87.4%
viability, T/C [4]: 82.8%
viability, T/C [5]: 91.4%
viability, T/C [6]: 75.6%
viability, T/C [7]: 65.8%
viability, T/C [8]: 64.4%
viability, T/C [9]: 63.1%
viability, T/C [10]: 61.2%
viability, T/C [11]: 52.5%
viability, T/C [12]: 63.9%
viability, T/C [13]: 31%
viability, T/C [14]: 36.2%
viability, T/C [15]: 35.8%
viability, T/C [16]: 33.9%
viability, T/C [17]: 28.6%
viability, T/C [18]: 28.6%
viability, T/C [19]: 26.3%
viability, T/C [20]: 29%
viability, T/C [21]: 28.4%
viability, T/C [22]: 25.6%
viability, T/C [23]: 27.3%
viability, T/C [24]: 28.7%
viability, T/C [25]: 43.4%
viability, T/C [26]: 25.7%
viability, T/C [27]: 30.3%
viability, T/C [28]: 30.5%
viability, T/C [29]: 28.5%
viability, T/C [30]: 30.2%
viability, T/C [31]: 0.21%
viability, T/C [32]: 0.26%
viability, T/C [33]: 0.26%
viability, T/C [34]: 0.25%
viability, T/C [35]: 0.25%
viability, T/C [36]: 0.25%

Structure (SMILES): CC1COCCN1c1cc(C2(O)CC3CCC(C2)O3)c2cnn(-c3ccn[nH]3)c2n1 (centres undefined) + Cc1[nH]c2ccc(F)cc2c1-c1nc2c3cccnc3c3ncccc3c2[nH]1
IC50 (second compound 0.0316 µM): < 31.6 nM
IC50 (second compound 0.1 µM): < 31.6 nM
IC50 (second compound 0.316 µM): < 31.6 nM
IC50 (second compound 1 µM): < 31.6 nM
IC50 (second compound 3.16 µM): < 31.6 nM
IC50 (second compound 10 µM): < 31.6 nM
viability, T/C [1]: 34.7%
viability, T/C [2]: 5.25%
viability, T/C [3]: 3.32%
viability, T/C [4]: 4.26%
viability, T/C [5]: 6.56%
viability, T/C [6]: 9.72%
viability, T/C [7]: 29.1%
viability, T/C [8]: 4.51%
viability, T/C [9]: 2.65%
viability, T/C [10]: 4.14%
viability, T/C [11]: 6.29%
viability, T/C [12]: 8.64%
viability, T/C [13]: 14.5%
viability, T/C [14]: 3.01%
viability, T/C [15]: 3.13%
viability, T/C [16]: 3.89%
viability, T/C [17]: 7.17%
viability, T/C [18]: 8.72%
viability, T/C [19]: 3.34%
viability, T/C [20]: 3.2%
viability, T/C [21]: 2.99%
viability, T/C [22]: 3.85%
viability, T/C [23]: 7.13%
viability, T/C [24]: 4.46%
viability, T/C [25]: 1.99%
viability, T/C [26]: 1.52%
viability, T/C [27]: 2.56%
viability, T/C [28]: 3.64%
viability, T/C [29]: 4.56%
viability, T/C [30]: 3.61%
viability, T/C [31]: 1.09%
viability, T/C [32]: 1.19%
viability, T/C [33]: 1.76%
viability, T/C [34]: 2.85%
viability, T/C [35]: 4.02%
viability, T/C [36]: 3.55%
